Test results: ChEMBL document CHEMBL3045169, “In vitro evaluation of the antibacterial and antifungal activity of some new pyrazolyl-quinazolin-4(3H)-one derivatives” (2012)

How the values were obtained:
Type in all cases: functional
Aspergillus niger [1] = test: Antifungal activity against Aspergillus niger ATCC 6275 by agar cup-plate method relative to fluconazole; parameters: concentration or dose not given beside the values
Aspergillus niger [2] = test: Antifungal activity against Aspergillus niger ATCC 6275 at 10 ug/ml by agar cup-plate method; settings: read-out: IZ
Aspergillus niger [3] = test: Antifungal activity against Aspergillus niger ATCC 6275 at 20 ug/ml by agar cup-plate method; settings: read-out: IZ
Candida albicans [4] = test: Antifungal activity against Candida albicans ATCC 10231 by agar cup-plate method relative to fluconazole; parameters: concentration or dose not given beside the values
Candida albicans [5] = test: Antifungal activity against Candida albicans ATCC 10231 at 10 ug/ml by agar cup-plate method; settings: read-out: IZ
Candida albicans [6] = test: Antifungal activity against Candida albicans ATCC 10231 at 20 ug/ml by agar cup-plate method; settings: read-out: IZ
Pseudomonas aeruginosa [7] = test: Antibacterial activity against Pseudomonas aeruginosa ATCC 9027 by agar cup-plate method relative to penicillin-G; parameters: concentration or dose not given beside the values
Pseudomonas aeruginosa [8] = test: Antibacterial activity against Pseudomonas aeruginosa ATCC 9027 at 50 ug/ml by agar cup-plate method; settings: read-out: IZ
Pseudomonas aeruginosa [9] = test: Antibacterial activity against Pseudomonas aeruginosa ATCC 9027 at 100 ug/ml by agar cup-plate method; settings: read-out: IZ
Escherichia coli [10] = test: Antibacterial activity against Escherichia coli ATCC 25922 by agar cup-plate method relative to penicillin-G; parameters: concentration or dose not given beside the values
Escherichia coli [11] = test: Antibacterial activity against Escherichia coli ATCC 25922 at 50 ug/ml by agar cup-plate method; settings: read-out: IZ
Escherichia coli [12] = test: Antibacterial activity against Escherichia coli ATCC 25922 at 100 ug/ml by agar cup-plate method; settings: read-out: IZ
Bacillus subtilis [13] = test: Antibacterial activity against Bacillus subtilis ATCC 6633 by agar cup plate method relative to penicillin-G; parameters: concentration or dose not given beside the values
Bacillus subtilis [14] = test: Antibacterial activity against Bacillus subtilis ATCC 6633 at 50 ug/ml by agar cup plate method; settings: read-out: IZ
Bacillus subtilis [15] = test: Antibacterial activity against Bacillus subtilis ATCC 6633 at 100 ug/ml by agar cup plate method; settings: read-out: IZ
Staphylococcus aureus [16] = test: Antibacterial activity against Staphylococcus aureus ATCC 9144 by agar cup-plate method relative to penicillin-G; parameters: concentration or dose not given beside the values
Staphylococcus aureus [17] = test: Antibacterial activity against Staphylococcus aureus ATCC 9144 at 50 ug/ml by agar cup-plate method; settings: read-out: IZ
Staphylococcus aureus [18] = test: Antibacterial activity against Staphylococcus aureus ATCC 9144 at 100 ug/ml by agar cup-plate method; settings: read-out: IZ

O=c1c2cc(I)ccc2nc(Cc2ccccc2Nc2ccccc2)n1NC1=NNC(c2ccccc2O)C1 (stereo not drawn)
Activity (Aspergillus niger [1]): 38.11% | zone of inhibition at 10 µg/mL (Aspergillus niger [2]): 8 mm | zone of inhibition at 20 µg/mL (Aspergillus niger [3]): 10 mm | Activity (Candida albicans [4]): 49.95% | zone of inhibition at 10 µg/mL (Candida albicans [5]): 9 mm | zone of inhibition at 20 µg/mL (Candida albicans [6]): 12 mm | Activity (Pseudomonas aeruginosa [7]): 39.56% | zone of inhibition at 50 µg/mL (Pseudomonas aeruginosa [8]): 8 mm | zone of inhibition at 100 µg/mL (Pseudomonas aeruginosa [9]): 10 mm | Activity (Escherichia coli [10]): 34.11% | zone of inhibition at 50 µg/mL (Escherichia coli [11]): 7 mm | zone of inhibition at 100 µg/mL (Escherichia coli [12]): 9 mm | Activity (Bacillus subtilis [13]): 41.49% | zone of inhibition at 50 µg/mL (Bacillus subtilis [14]): 9 mm | zone of inhibition at 100 µg/mL (Bacillus subtilis [15]): 11 mm | Activity (Staphylococcus aureus [16]): 38.15% | zone of inhibition at 50 µg/mL (Staphylococcus aureus [17]): 8 mm | zone of inhibition at 100 µg/mL (Staphylococcus aureus [18]): 10 mm
